Reference: US20240000872A1, “NOVEL BACTERIOPHAGE THAT LYSES ACINETOBACTER GENUS BACTERIA HAVING RESISTANCE TO ANTIBIOTICS” (priority 2020, published 2024)

Test system: Acinetobacter baumannii strains
Test: Antibiotic susceptibility test (CLSI disk diffusion test method, read per CLSI 2016); further: key: ‘S’ means susceptible; ‘I’ means intermediate; ‘R’ means resistant
Type: cell-based

SMILES: CCN1CCN(C(=O)N[C@@H](C(=O)N[C@@H]2C(=O)N3[C@@H]2SC(C)(C)[C@@H]3C(=O)O)c2ccccc2)C(=O)C1=O [Piperacillin, piperacillin]
- antibiotic susceptibility class (host strain YMC14/01/C29): R
- antibiotic susceptibility class (host strain YMC14/01/IP122): R
- antibiotic susceptibility class (host strain YMC14/01/L8): R
- antibiotic susceptibility class (host strain YMC14/01/P31): R
- antibiotic susceptibility class (host strain YMC14/01/P117): R
- antibiotic susceptibility class (host strain YMC14/01/P224): R
- antibiotic susceptibility class (host strain YMC14/01/P727): R
- antibiotic susceptibility class (host strain YMC14/01/P728): R
- antibiotic susceptibility class (host strain YMC14/01/R130): R
- antibiotic susceptibility class (host strain YMC14/01/R160): R
- antibiotic susceptibility class (host strain YMC14/01/R198): R
- antibiotic susceptibility class (host strain YMC14/01/R257): R
- antibiotic susceptibility class (host strain YMC14/01/R270): R
- antibiotic susceptibility class (host strain YMC14/01/R324): R
- antibiotic susceptibility class (host strain YMC14/01/R443): R
- antibiotic susceptibility class (host strain YMC14/01/R451): R
- antibiotic susceptibility class (host strain YMC14/01/R560): R
- antibiotic susceptibility class (host strain YMC14/01/R617): R
- antibiotic susceptibility class (host strain YMC14/01/R671): R
- antibiotic susceptibility class (host strain YMC14/01/R732): R
- antibiotic susceptibility class (host strain YMC14/01/R767): R
- antibiotic susceptibility class (host strain YMC14/01/R904): R
- antibiotic susceptibility class (host strain YMC14/01/R905): R
- antibiotic susceptibility class (host strain YMC14/01/R921): R
- antibiotic susceptibility class (host strain YMC14/01/R941): R
- antibiotic susceptibility class (host strain YMC14/01/R958): R
- antibiotic susceptibility class (host strain YMC14/01/R1006): R
- antibiotic susceptibility class (host strain YMC14/01/R1199): R
- antibiotic susceptibility class (host strain YMC14/01/R1659): R
- antibiotic susceptibility class (host strain YMC14/01/R1722): R
- antibiotic susceptibility class (host strain YMC14/01/R1752): R
- antibiotic susceptibility class (host strain YMC14/01/R2429): R
- antibiotic susceptibility class (host strain YMC14/01/R2572): R
- antibiotic susceptibility class (host strain YMC14/01/R2855): R
- antibiotic susceptibility class (host strain YMC14/01/R2945): R
- antibiotic susceptibility class (host strain YMC14/01/R3007): R
- antibiotic susceptibility class (host strain YMC14/01/R3129): R
- antibiotic susceptibility class (host strain YMC14/01/R3317): R
- antibiotic susceptibility class (host strain YMC14/01/R3474): R
- antibiotic susceptibility class (host strain YMC14/01/R3574): R
- antibiotic susceptibility class (host strain YMC14/01/U313): R
- antibiotic susceptibility class (host strain YMC14/01/U318): R
- antibiotic susceptibility class (host strain YMC14/02/L18): R
- antibiotic susceptibility class (host strain YMC14/02/P47): R
- antibiotic susceptibility class (host strain YMC14/02/R1860): R
- antibiotic susceptibility class (host strain YMC14/02/R2417): R
- antibiotic susceptibility class (host strain YMC14/02/R2599): R
- antibiotic susceptibility class (host strain YMC14/02/R2668): R
- antibiotic susceptibility class (host strain YMC14/02/R2758): R
- antibiotic susceptibility class (host strain YMC14/02/R2781): R
- antibiotic susceptibility class (host strain YMC14/02/R3106): R
- antibiotic susceptibility class (host strain YMC14/02/R3419): R
- antibiotic susceptibility class (host strain YMC14/02/U1607): R
- antibiotic susceptibility class (host strain YMC14/03/L9): R
- antibiotic susceptibility class (host strain YMC14/03/P471): R
- antibiotic susceptibility class (host strain YMC14/03/R122): R
- antibiotic susceptibility class (host strain YMC14/03/R217): R
- antibiotic susceptibility class (host strain YMC14/03/R380): R
- antibiotic susceptibility class (host strain YMC14/03/R618): R
- antibiotic susceptibility class (host strain YMC14/03/R2144): R
- antibiotic susceptibility class (host strain YMC14/03/U4616): R
- antibiotic susceptibility class (host strain YMC14/04/R1078): R
- antibiotic susceptibility class (host strain YMC14/04/R1080): R
- susceptibility category (S/I/R) (host strain YMC14/06/R2359): R
- susceptibility category (S/I/R) (host strain YMC14/08/R1169): R
- susceptibility category (S/I/R) (host strain YMC14/08/T90): R
- susceptibility category (S/I/R) (host strain YMC15/02/R436): R
- susceptibility category (S/I/R) (host strain YMC15/02/T28): R
- susceptibility category (S/I/R) (host strain YMC15/03/R1604): R
- susceptibility category (S/I/R) (host strain YMC15/09/R1869): R
- susceptibility category (S/I/R) (host strain YMC16/01/P11): R
- susceptibility category (S/I/R) (host strain YMC16/01/R123): R
- susceptibility category (S/I/R) (host strain YMC16/01/R198): R
- susceptibility category (S/I/R) (host strain YMC16/01/R353): R
- susceptibility category (S/I/R) (host strain YMC16/01/R380): R
- susceptibility category (S/I/R) (host strain YMC16/01/R397): R
- susceptibility category (S/I/R) (host strain YMC16/01/R405): R
- susceptibility category (S/I/R) (host strain YMC16/03/R4461): R
- susceptibility category (S/I/R) (host strain YMC16/05/R2210): R
- susceptibility category (S/I/R) (host strain YMC16/07/R2512): R
- susceptibility category (S/I/R) (host strain YMC16/09/R2471): R
- susceptibility category (S/I/R) (host strain YMC16/10/R2537): R
- susceptibility category (S/I/R) (host strain YMC16/12/B11422): R
- susceptibility category (S/I/R) (host strain YMC16/12/B11449): R
- susceptibility category (S/I/R) (host strain YMC16/12/B13325): R
- susceptibility category (S/I/R) (host strain YMC16/12/P503): R
- susceptibility category (S/I/R) (host strain YMC16/12/R4637): R
- susceptibility category (S/I/R) (host strain YMC17/01/B8053): R
- susceptibility category (S/I/R) (host strain YMC17/01/B10087): R
- susceptibility category (S/I/R) (host strain YMC17/01/B12075): R
- susceptibility category (S/I/R) (host strain YMC17/01/B13454): R
- susceptibility category (S/I/R) (host strain YMC17/01/P518): R
- susceptibility category (S/I/R) (host strain YMC17/01/R2812): R
- susceptibility category (S/I/R) (host strain YMC17/02/B14): R
- susceptibility category (S/I/R) (host strain YMC17/02/B87): R
- susceptibility category (S/I/R) (host strain YMC17/02/B721): R
- susceptibility category (S/I/R) (host strain YMC17/02/B4039): R
- susceptibility category (S/I/R) (host strain YMC17/02/B4520): R
- susceptibility category (S/I/R) (host strain YMC17/02/B4864): S
- susceptibility category (S/I/R) (host strain YMC17/02/B8414): R
- susceptibility category (S/I/R) (host strain YMC17/02/P523): R
- susceptibility category (S/I/R) (host strain YMC17/02/R541): R
- susceptibility category (S/I/R) (host strain YMC17/02/R2392): R
- susceptibility category (S/I/R) (host strain YMC17/03/B4730): R
- susceptibility category (S/I/R) (host strain YMC17/03/B5000): R
- susceptibility category (S/I/R) (host strain YMC17/03/P971): R
- susceptibility category (S/I/R) (host strain YMC17/03/R348): R
- susceptibility category (S/I/R) (host strain YMC17/03/R585): R
- susceptibility category (S/I/R) (host strain YMC17/03/R1888): R
- susceptibility category (S/I/R) (host strain YMC17/03/R3279): R
- susceptibility category (S/I/R) (host strain YMC17/03/R4077): R
- susceptibility category (S/I/R) (host strain YMC17/03/R4607): R
- susceptibility category (S/I/R) (host strain YMC17/04/R488): R
- susceptibility category (S/I/R) (host strain YMC17/04/R640): R
- susceptibility category (S/I/R) (host strain YMC/17/05/R1095): R
